# Results reported in patent publication US20220281848A1, “PYRAZOLE-SUBSTITUTED PYRROLIDINONES AS HERBICIDES” (FMC Corporation, priority 2019, published 2022).
# Columns and labels:
# wheat = test: Test D post-emergence, wheat seed treated with a herbicide safener; type: in vivo; settings: "Cereals" Postemergent
# In short: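 Safener-seed-treated maize and wheat were sprayed with an emulsifiable formulation diluted in 0.2% v/v adjuvant solution, one day after sowing (pre-emergence) or after about 12 days (post-emergence). Plants were grown in a glasshouse at 24/18 or 20/16 °C with 16 h light; damage was scored 0–100 at 20 DAA (pre) or 15 d (post).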
# plants = test: Test D post-emergence, other plants of Tables D2 and D4; type: in vivo; settings: for damage to plant (100=total damage to plant; 0=no damage to plant), ABUTH / damage to plant (100=total damage to plant; 0=no damage to plant), AMARE / damage to plant (100=total damage to plant; 0=no damage to plant), BIDPI / damage to plant (100=total damage to plant; 0=no damage to plant), BRAPL / damage to plant (100=total damage to plant; 0=no damage to plant), CYPES / damage to plant (100=total damage to plant; 0=no damage to plant), DIGSA / damage to plant (100=total damage to plant; 0=no damage to plant), ECHCG / damage to plant (100=total damage to plant; 0=no damage to plant), ELEIN / damage to plant (100=total damage to plant; 0=no damage to plant), EPHHL / damage to plant (100=total damage to plant; 0=no damage to plant), GLXMA / damage to plant (100=total damage to plant; 0=no damage to plant), IPOHE / damage to plant (100=total damage to plant; 0=no damage to plant), ORYSA / damage to plant (100=total damage to plant; 0=no damage to plant), PANMI / damage to plant (100=total damage to plant; 0=no damage to plant), SETFA / damage to plant (100=total damage to plant; 0=no damage to plant), SORVU: post-emergence
# In short: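 Seeds treated with herbicide safener; sown in soil; glasshouse, 16 h light, 65% humidity. Sprayed day 1 (pre) or ~day 12 (post). Spray in 0.2% v/v adjuvant. Scored 0–100 damage: 20 DAA pre, 15 d post.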
# [1] = "Cereals" Postemergent, Rates 130, evaluated after 15 d
# [2] = "Cereals" Postemergent, Rates 250, evaluated after 15 d
# [3] = "Cereals" Postemergent, Rates 500, evaluated after 15 d
compound,measurement,setting,value
CN1CC(c2cc(C(F)(F)F)n(C)n2)C(C(=O)Nc2cccc(F)c2C(F)(F)F)C1=O (racemic) [Compound 19],TRZAW damage rating (100=total damage to plant; 0=no damage to plant),"wheat; Rates 130, evaluated after 15 d",0
same,TRZAW damage rating (100=total damage to plant; 0=no damage to plant),"wheat; Rates 250, evaluated after 15 d",0
same,TRZAW damage rating (100=total damage to plant; 0=no damage to plant),"wheat; Rates 500, evaluated after 15 d",20
same,ALOMY damage rating (100=total damage to plant; 0=no damage to plant),plants; [1],0
same,ALOMY damage rating (100=total damage to plant; 0=no damage to plant),plants; [2],0
same,ALOMY damage rating (100=total damage to plant; 0=no damage to plant),plants; [3],30
same,AVEFA damage rating (100=total damage to plant; 0=no damage to plant),plants; [1],0
same,AVEFA damage rating (100=total damage to plant; 0=no damage to plant),plants; [2],10
same,AVEFA damage rating (100=total damage to plant; 0=no damage to plant),plants; [3],40
same,BEAVA damage rating (100=total damage to plant; 0=no damage to plant),plants; [1],0
same,BEAVA damage rating (100=total damage to plant; 0=no damage to plant),plants; [2],10
same,BEAVA damage rating (100=total damage to plant; 0=no damage to plant),plants; [3],10
same,BROTE damage rating (100=total damage to plant; 0=no damage to plant),plants; [1],0
same,BROTE damage rating (100=total damage to plant; 0=no damage to plant),plants; [2],0
same,BROTE damage rating (100=total damage to plant; 0=no damage to plant),plants; [3],0
same,BRSNN damage rating (100=total damage to plant; 0=no damage to plant),plants; [1],0
same,BRSNN damage rating (100=total damage to plant; 0=no damage to plant),plants; [2],20
same,BRSNN damage rating (100=total damage to plant; 0=no damage to plant),plants; [3],10
same,CHEAL damage rating (100=total damage to plant; 0=no damage to plant),plants; [1],0
same,CHEAL damage rating (100=total damage to plant; 0=no damage to plant),plants; [2],0
same,CHEAL damage rating (100=total damage to plant; 0=no damage to plant),plants; [3],40
same,GALAP damage rating (100=total damage to plant; 0=no damage to plant),plants; [1],0
same,GALAP damage rating (100=total damage to plant; 0=no damage to plant),plants; [2],0
same,GALAP damage rating (100=total damage to plant; 0=no damage to plant),plants; [3],20
same,HORVW damage rating (100=total damage to plant; 0=no damage to plant),plants; [1],0
same,HORVW damage rating (100=total damage to plant; 0=no damage to plant),plants; [2],0
same,HORVW damage rating (100=total damage to plant; 0=no damage to plant),plants; [3],40
same,KCHSC damage rating (100=total damage to plant; 0=no damage to plant),plants; [1],0
same,KCHSC damage rating (100=total damage to plant; 0=no damage to plant),plants; [2],0
same,KCHSC damage rating (100=total damage to plant; 0=no damage to plant),plants; [3],0
same,LOLPE damage rating (100=total damage to plant; 0=no damage to plant),plants; [1],0
same,LOLPE damage rating (100=total damage to plant; 0=no damage to plant),plants; [2],0
same,LOLPE damage rating (100=total damage to plant; 0=no damage to plant),plants; [3],10
same,POAAN damage rating (100=total damage to plant; 0=no damage to plant),plants; [1],0
same,POAAN damage rating (100=total damage to plant; 0=no damage to plant),plants; [2],30
same,POAAN damage rating (100=total damage to plant; 0=no damage to plant),plants; [3],40
same,POLCO damage rating (100=total damage to plant; 0=no damage to plant),plants; [1],0
same,POLCO damage rating (100=total damage to plant; 0=no damage to plant),plants; [2],0
same,POLCO damage rating (100=total damage to plant; 0=no damage to plant),plants; [3],0
same,SINAR damage rating (100=total damage to plant; 0=no damage to plant),"plants; SINAR, ""Cereals"" Postemergent, Rates 500, evaluated after 15 d",20
same,STEME damage rating (100=total damage to plant; 0=no damage to plant),plants; [1],0
same,STEME damage rating (100=total damage to plant; 0=no damage to plant),plants; [2],0
same,STEME damage rating (100=total damage to plant; 0=no damage to plant),plants; [3],0
same,VERPE damage rating (100=total damage to plant; 0=no damage to plant),plants; [1],0
same,VERPE damage rating (100=total damage to plant; 0=no damage to plant),plants; [2],0
same,VERPE damage rating (100=total damage to plant; 0=no damage to plant),plants; [3],10
same,"damage to plant (100=total damage to plant; 0=no damage to plant), ABUTH","plants; rate 130, evaluated after 15 d",0
same,"damage to plant (100=total damage to plant; 0=no damage to plant), ABUTH","plants; rate 250, evaluated after 15 d",10
same,"damage to plant (100=total damage to plant; 0=no damage to plant), ABUTH","plants; rate 500, evaluated after 15 d",20
same,"damage to plant (100=total damage to plant; 0=no damage to plant), AMARE","plants; rate 130, evaluated after 15 d",0
same,"damage to plant (100=total damage to plant; 0=no damage to plant), AMARE","plants; rate 250, evaluated after 15 d",10
same,"damage to plant (100=total damage to plant; 0=no damage to plant), AMARE","plants; rate 500, evaluated after 15 d",20
same,"damage to plant (100=total damage to plant; 0=no damage to plant), BIDPI","plants; rate 130, evaluated after 15 d",0
same,"damage to plant (100=total damage to plant; 0=no damage to plant), BIDPI","plants; rate 250, evaluated after 15 d",0
same,"damage to plant (100=total damage to plant; 0=no damage to plant), BIDPI","plants; rate 500, evaluated after 15 d",10
same,"damage to plant (100=total damage to plant; 0=no damage to plant), BRAPL","plants; rate 130, evaluated after 15 d",60
same,"damage to plant (100=total damage to plant; 0=no damage to plant), BRAPL","plants; rate 250, evaluated after 15 d",70
same,"damage to plant (100=total damage to plant; 0=no damage to plant), BRAPL","plants; rate 500, evaluated after 15 d",80
same,"damage to plant (100=total damage to plant; 0=no damage to plant), CYPES","plants; rate 130, evaluated after 15 d",0
same,"damage to plant (100=total damage to plant; 0=no damage to plant), CYPES","plants; rate 250, evaluated after 15 d",0
same,"damage to plant (100=total damage to plant; 0=no damage to plant), CYPES","plants; rate 500, evaluated after 15 d",0
same,"damage to plant (100=total damage to plant; 0=no damage to plant), DIGSA","plants; rate 130, evaluated after 15 d",60
same,"damage to plant (100=total damage to plant; 0=no damage to plant), DIGSA","plants; rate 250, evaluated after 15 d",70
same,"damage to plant (100=total damage to plant; 0=no damage to plant), DIGSA","plants; rate 500, evaluated after 15 d",80
same,"damage to plant (100=total damage to plant; 0=no damage to plant), ECHCG","plants; rate 130, evaluated after 15 d",10
same,"damage to plant (100=total damage to plant; 0=no damage to plant), ECHCG","plants; rate 250, evaluated after 15 d",20
same,"damage to plant (100=total damage to plant; 0=no damage to plant), ECHCG","plants; rate 500, evaluated after 15 d",70
same,"damage to plant (100=total damage to plant; 0=no damage to plant), ELEIN","plants; rate 130, evaluated after 15 d",10
same,"damage to plant (100=total damage to plant; 0=no damage to plant), ELEIN","plants; rate 250, evaluated after 15 d",10
same,"damage to plant (100=total damage to plant; 0=no damage to plant), ELEIN","plants; rate 500, evaluated after 15 d",60
same,"damage to plant (100=total damage to plant; 0=no damage to plant), EPHHL","plants; rate 130, evaluated after 15 d",0
same,"damage to plant (100=total damage to plant; 0=no damage to plant), EPHHL","plants; rate 250, evaluated after 15 d",10
same,"damage to plant (100=total damage to plant; 0=no damage to plant), EPHHL","plants; rate 500, evaluated after 15 d",30
same,"damage to plant (100=total damage to plant; 0=no damage to plant), GLXMA","plants; rate 130, evaluated after 15 d",0
same,"damage to plant (100=total damage to plant; 0=no damage to plant), GLXMA","plants; rate 250, evaluated after 15 d",0
same,"damage to plant (100=total damage to plant; 0=no damage to plant), GLXMA","plants; rate 500, evaluated after 15 d",20
same,"damage to plant (100=total damage to plant; 0=no damage to plant), IPOHE","plants; rate 130, evaluated after 15 d",0
same,"damage to plant (100=total damage to plant; 0=no damage to plant), IPOHE","plants; rate 250, evaluated after 15 d",0
same,"damage to plant (100=total damage to plant; 0=no damage to plant), IPOHE","plants; rate 500, evaluated after 15 d",20
same,"damage to plant (100=total damage to plant; 0=no damage to plant), ORYSA","plants; rate 130, evaluated after 15 d",0
same,"damage to plant (100=total damage to plant; 0=no damage to plant), ORYSA","plants; rate 250, evaluated after 15 d",0
same,"damage to plant (100=total damage to plant; 0=no damage to plant), ORYSA","plants; rate 500, evaluated after 15 d",10
same,"damage to plant (100=total damage to plant; 0=no damage to plant), PANMI","plants; rate 130, evaluated after 15 d",0
same,"damage to plant (100=total damage to plant; 0=no damage to plant), PANMI","plants; rate 250, evaluated after 15 d",10
same,"damage to plant (100=total damage to plant; 0=no damage to plant), PANMI","plants; rate 500, evaluated after 15 d",40
same,"damage to plant (100=total damage to plant; 0=no damage to plant), SETFA","plants; rate 130, evaluated after 15 d",0
same,"damage to plant (100=total damage to plant; 0=no damage to plant), SETFA","plants; rate 250, evaluated after 15 d",50
same,"damage to plant (100=total damage to plant; 0=no damage to plant), SETFA","plants; rate 500, evaluated after 15 d",70
same,"damage to plant (100=total damage to plant; 0=no damage to plant), SORVU","plants; rate 130, evaluated after 15 d",0
same,"damage to plant (100=total damage to plant; 0=no damage to plant), SORVU","plants; rate 250, evaluated after 15 d",0
same,"damage to plant (100=total damage to plant; 0=no damage to plant), SORVU","plants; rate 500, evaluated after 15 d",20
